Active and inactive are the calls of the source. The rule behind the calls is not given here.
Experiments:
[1] = test system: Human immunodeficiency virus 1; assay: Antiviral activity against HIV1 3B infected in human MT4 cells assessed as protection against virus-induced cytopathic effect incubated for 5 days by MTT assay; assay type: functional, organism-based; details: Human immunodeficiency virus 1, 3B, MT4, 120 h
[2] = test system: Human immunodeficiency virus 1; assay: Antiviral activity against HIV1 RES056 infected in human MT4 cells assessed as protection against virus-induced cytopathic effect incubated for 5 days by MTT assay; assay type: functional, organism-based; details: Human immunodeficiency virus 1, RES056, MT4, 120 h
[3] = Cytotoxicity against mock-infected human MT4 cells assessed as reduction in cell viability measured after 5 days by MTT assay; assay type: cell-based; details: time 5 day
[4] = Selectivity index, ratio of CC50 for mock-infected human MT4 cells to EC50 for HIV1 3B infected in human MT4 cells; assay type: toxicity, cell-based; details: MT4 cells (mock-infected and HIV1 3B infected), read-out: Ratio CC50/EC50
[5] = Selectivity index, ratio of CC50 for mock-infected human MT4 cells to EC50 for HIV1 RES056 infected in human MT4 cells; assay type: toxicity, cell-based; details: MT4 cells (mock-infected and HIV1 RES056 infected), read-out: Ratio CC50/EC50
[6] = molecular target: Human immunodeficiency virus type 1 reverse transcriptase (Human immunodeficiency virus 1, UniProt Q72547); assay: Inhibition of wild type HIV1 p66/p51 reverse transcriptase using poly(rA) as template, oligo(dT)16 as primer and RNA/DNA as substrate measured after 40 mins by PICOGreen-dye based spectrofluorimetry analysis
[7] = test system: Human immunodeficiency virus 2; assay: Antiviral activity against HIV2 ROD infected in human MT4 cells assessed as protection against virus-induced cytopathogenicity after 5 days by MTT assay; assay type: functional, organism-based; details: time 5.0 day
[8] = test system: Human immunodeficiency virus 1; assay: Antiviral activity against HIV1 harboring reverse transcriptase E138K mutant infected in human MT4 cells assessed as protection against virus-induced cytopathic effect incubated for 5 days by MTT assay; assay type: functional, organism-based; details: Human immunodeficiency virus 1, MT4, 120 h
[9] = test system: Human immunodeficiency virus 1; assay: Antiviral activity against HIV1 harboring reverse transcriptase K103N mutant infected in human MT4 cells assessed as protection against virus-induced cytopathic effect incubated for 5 days by MTT assay; assay type: functional, organism-based; details: Human immunodeficiency virus 1, MT4, 120 h
[10] = test system: Human immunodeficiency virus 1; assay: Antiviral activity against HIV1 harboring reverse transcriptase Y181C mutant infected in human MT4 cells assessed as protection against virus-induced cytopathic effect incubated for 5 days by MTT assay; assay type: functional, organism-based; details: Human immunodeficiency virus 1, MT4, 120 h
[11] = test system: Human immunodeficiency virus 1; assay: Antiviral activity against HIV1 harboring reverse transcriptase Y188L mutant infected in human MT4 cells assessed as protection against virus-induced cytopathic effect incubated for 5 days by MTT assay; assay type: functional, organism-based; details: Human immunodeficiency virus 1, MT4, 120 h
[12] = test system: Human immunodeficiency virus 1; assay: Antiviral activity against HIV1 harboring reverse transcriptase L100I mutant infected in human MT4 cells assessed as protection against virus-induced cytopathic effect incubated for 5 days by MTT assay; assay type: functional, organism-based; details: Human immunodeficiency virus 1, MT4, 120 h
[13] = test system: Human immunodeficiency virus 1; assay: Antiviral activity against HIV1 harboring reverse transcriptase F227L/V106A double mutant infected in human MT4 cells assessed as protection against virus-induced cytopathic effect incubated for 5 days by MTT assay; assay type: functional, organism-based; details: Human immunodeficiency virus 1, MT4, 120 h
[14] = test system: Human immunodeficiency virus 1; assay: Potency index, ratio of EFV EC50 to test compound EC50 for antiviral activity against HIV1 RES056 infected in human MT4 cells; assay type: functional
[15] = Half life in human liver microsomes at 1 uM in presence of NADPH by LC-MS/MS analysis; assay type: ADME, Microsome
in vitro = details: human, liver microsomes

Compound | EC50 [1] [nM] | EC50 [2] [nM] | CC50 at 120 h [3] [nM] | selectivity ratio [4] | selectivity ratio [5] | IC50 [6] [nM] | Activity [7] | EC50 [8] [nM] | EC50 [9] [nM] | EC50 [10] [nM] | EC50 [11] [nM] | EC50 [12] [nM] | EC50 [13] [nM] | Ratio EC50 [14] | half-life at 1 µM [15] [min] | CLint scaled at 1 h, 1 µM (in vitro) [mL/min/kg]
Cc1cc(C#N)cc(C)c1Oc1nc(Nc2ccc(C#N)nc2)nc2c1ccn2COCC[Si](C)(C)C | 253 | > 117000 | 117000 | 463 | < 1 | 7400 | inactive | – | – | – | – | – | – | – | – | –
Cc1cc(C#N)cc(C)c1Oc1nc(Nc2ccc(C#N)nc2)nc2c1ccn2CO | 46.9 | > 138000 | ≥ 138000 | ≥ 2950 | – | 47 | inactive | – | – | – | – | – | – | – | – | –
Cn1c(Cn2ccc(C(F)(F)F)c(Oc3cc(Cl)cc(C#N)c3)c2=O)n[nH]c1=O [DORAVIRINE] | 13 | 15 | > 294000 | > 21900 | > 20100 | – | – | – | – | – | – | – | – | – | – | –
Cc1cc(C#N)cc(C)c1Oc1nc(Nc2ccc(C#N)cc2)nc2c1ccn2CO | 6.1 | 128 | 830 | 137 | 6 | 40 | inactive | > 707 | 3.7 | 31.2 | > 707 | 20.1 | > 707 | – | – | –
Cc1cc(/C=C/C#N)cc(C)c1Oc1nc(Nc2ccc(C#N)nc2)nc2c1CCCC2 | 7.6 | 58.8 | 8800 | 1160 | 150 | 147 | inactive | > 8830 | 7.7 | 34.8 | > 8830 | 12.8 | > 8830 | 2.4 | 26.5 | 47
Cc1cc(C=O)cc(C)c1Oc1nc(Nc2ccc(C#N)nc2)nc2c1CCCC2 | 35.4 | 9210 | 20900 | 590 | 2 | 43 | inactive | – | – | – | – | – | – | – | – | –
Cc1cc(C)c(Oc2nc(Nc3ccc(C#N)cc3)nc3c2CCCC3)c(C)c1 | 38.6 | 805 | 6800 | 177 | 8 | 241 | inactive | 171 | 57 | 232 | 191 | 96.9 | 524 | – | – | –
Cc1cc(C=O)cc(C)c1Oc1nc(Nc2ccc(C#N)cc2)nc2c1CCCC2 | 35.1 | 1200 | 5900 | 169 | 5 | 55 | inactive | 146 | 63.7 | 748 | 663 | 492 | 2240 | – | – | –
Cc1cc(/C=C/C(N)=O)cc(C)c1Oc1nc(Nc2ccc(C#N)cc2)nn2cccc12 | 36.3 | 5850 | 57600 | 1590 | 10 | 53 | inactive | – | – | – | – | – | – | – | – | –
Cc1cc(/C=C/C#N)cc(C)c1Oc1nc(Nc2ccc(C#N)cc2)nc2c1CCCC2 | 14 | 68.2 | 7200 | 513 | 105 | 119 | inactive | 61.3 | 17 | 40.9 | 77.9 | 18 | 95.3 | 2.1 | 27.4 | 45.5
O=C(O)Cc1ccccc1Nc1c(Cl)cccc1Cl [DICLOFENAC] | – | – | – | – | – | – | – | – | – | – | – | – | – | – | – | 310
Cc1cc(C#N)cc(C)c1Oc1nc(Nc2ccc(C#N)cc2)nc(N)c1Br [ETRAVIRINE] | 4.8 | 473 | > 4600 | – | – | – | – | 15.2 | 3.9 | 213 | 27.2 | 7.4 | 25.7 | – | – | –
Cc1cc(C#N)cc(C)c1Oc1nc(Nc2ccc(CC#N)cc2)nc2c1CCCC2 | 11.7 | 1020 | 4500 | 385 | 4 | 53 | inactive | > 4520 | 9.9 | 283 | > 4520 | 68.5 | > 4520 | – | – | –
Cc1cc(C#N)cc(C)c1Oc1nc(Nc2ccc(C#N)cc2)nc2c1ccn2COCC[Si](C)(C)C | 820 | > 2960 | 3000 | 4 | < 1 | 171 | inactive | – | – | – | – | – | – | – | – | –
C[C@]12CC[C@H]3[C@@H](CCC4=CC(=O)CC[C@@]43C)[C@@H]1CC[C@@H]2O [TESTOSTERONE] | – | – | – | – | – | – | – | – | – | – | – | – | – | – | – | 126
Cc1cc(/C=C/C#N)cc(C)c1Nc1ccnc(Nc2ccc(C#N)cc2)n1 [RILPIVIRINE] | – | – | – | – | – | – | – | – | – | – | – | – | – | – | 12.8 | 97.6
Cc1cc(C#N)cc(C)c1Oc1nc(Nc2ccc(OC(F)(F)F)cc2)nc2c1CCCC2 | 80.6 | > 275000 | > 275000 | > 3410 | – | 61000 | inactive | – | – | – | – | – | – | – | – | –
Cc1cc(/C=C/C#N)cc(C)c1Oc1nc(Nc2ccc(C#N)cc2)nn2cccc12 | 12.6 | 61.1 | 5000 | 395 | 81 | 43 | inactive | > 41300 | 4.8 | 19.7 | > 41300 | 7.8 | > 41300 | 2.4 | 43.3 | 28.8
O=C1Nc2ccc(Cl)cc2[C@@](C#CC2CC2)(C(F)(F)F)O1 [EFAVIRENZ] | 4.5 | 144 | > 6300 | > 1390 | > 44 | – | – | 6 | – | – | 244 | 51.6 | 274 | – | – | –
Cc1cc(/C=C/C#N)cc(C)c1Oc1nc(Nc2ccc(CC#N)cc2)nc2c1CCCC2 | 17.7 | 433 | 48300 | 2730 | 112 | 49 | inactive | > 25800 | 12.9 | 140 | > 25800 | 49 | > 25800 | – | – | –
Cc1cc(C#N)cc(C)c1Oc1nc(Nc2ccc(C#N)nc2)nn2cccc12 | 7 | 1220 | 69100 | 9830 | 57 | 14 | inactive | > 69100 | 11.9 | 171 | > 69100 | 204 | > 69100 | – | – | –
Cc1cc(C#N)cc(C)c1Oc1nc(Nc2ccc(C#N)cc2)nc2c1CCCC2 | 10.6 | – | – | 298 | – | 52 | inactive | 19 | 7.1 | 52.7 | 24.5 | 12.8 | 58.4 | – | – | –
Cc1cc(C#N)cc(C)c1Oc1nc(Nc2ccc(S(C)(=O)=O)cc2)nc2c1CCCC2 | 56.7 | > 279000 | > 279000 | > 4920 | – | 69 | inactive | – | – | – | – | – | – | – | – | –
Cc1cc(C#N)cc(C)c1Oc1nc(Nc2ccc(C#N)cn2)nc2c1ccn2COCC[Si](C)(C)C | > 93900 | > 93900 | 93900 | < 1 | < 1 | 31000 | inactive | – | – | – | – | – | – | – | – | –
Cc1cc(C#N)cc(C)c1Oc1nc(Nc2ccc(C#N)nc2)nc2c1CCCC2 | 1070 | > 12600 | 244000 | 228 | < 19 | 50 | inactive | – | – | – | – | – | – | – | – | –
Cc1cc(C=O)cc(C)c1Oc1nc(Nc2ccc(C#N)cn2)nc2c1CCCC2 | 234 | > 35300 | 293000 | 1250 | 58 | 58 | inactive | – | – | – | – | – | – | – | – | –

— ChEMBL document CHEMBL4831527, “Structure-Based Design and Discovery of Pyridyl-Bearing Fused Bicyclic HIV-1 Inhibitors: Synthesis, Biological Characterization, and Molecular Modeling Studies” (J Med Chem, 2021)
